Results as given in patent US12649751B2 (Arcus Biosciences, Inc., priority 2022, dated 2026).
Where two headings read alike, the source gives them in different places.

Key:
HPK1 = HPK1 (Homo sapiens, UniProt Q92918); assay: HPK1 Biochemical Assay (ADP-Glo luminescence; low ATP 10 μM or high ATP 200 μM); details: HPK1 ADP-Glo assay, high ATP (200 μM ATP, 5 nM HPK1); read-out: Biochemical Potency (high ATP)
[1] = tested on: p-SLP-76 (Ser376) in Jurkat cells; assay: pSLP76 Cellular Assay (AlphaLISA SureFire Ultra p-SLP-76 (Ser376), anti-CD3 activated Jurkat cells); assay type: cell-based; details: pSLP76 (Ser376) AlphaLISA, anti-CD3 activated Jurkat cells, read-out: Cellular Potency
Method in brief: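 Read-out is AlphaLISA p-SLP-76 (Ser376) signal at 570 nm in Jurkat lysates, with IC50 fitted by 4-parameter logistic. Cells were starved overnight, exposed 1 h at 37 °C to 22 twofold compound dilutions in HBSS, then activated 45 min with anti-CD3 (0.025 mg/ml stock added).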

Chain of HPK1 (Q92918 whole entry, species assumed): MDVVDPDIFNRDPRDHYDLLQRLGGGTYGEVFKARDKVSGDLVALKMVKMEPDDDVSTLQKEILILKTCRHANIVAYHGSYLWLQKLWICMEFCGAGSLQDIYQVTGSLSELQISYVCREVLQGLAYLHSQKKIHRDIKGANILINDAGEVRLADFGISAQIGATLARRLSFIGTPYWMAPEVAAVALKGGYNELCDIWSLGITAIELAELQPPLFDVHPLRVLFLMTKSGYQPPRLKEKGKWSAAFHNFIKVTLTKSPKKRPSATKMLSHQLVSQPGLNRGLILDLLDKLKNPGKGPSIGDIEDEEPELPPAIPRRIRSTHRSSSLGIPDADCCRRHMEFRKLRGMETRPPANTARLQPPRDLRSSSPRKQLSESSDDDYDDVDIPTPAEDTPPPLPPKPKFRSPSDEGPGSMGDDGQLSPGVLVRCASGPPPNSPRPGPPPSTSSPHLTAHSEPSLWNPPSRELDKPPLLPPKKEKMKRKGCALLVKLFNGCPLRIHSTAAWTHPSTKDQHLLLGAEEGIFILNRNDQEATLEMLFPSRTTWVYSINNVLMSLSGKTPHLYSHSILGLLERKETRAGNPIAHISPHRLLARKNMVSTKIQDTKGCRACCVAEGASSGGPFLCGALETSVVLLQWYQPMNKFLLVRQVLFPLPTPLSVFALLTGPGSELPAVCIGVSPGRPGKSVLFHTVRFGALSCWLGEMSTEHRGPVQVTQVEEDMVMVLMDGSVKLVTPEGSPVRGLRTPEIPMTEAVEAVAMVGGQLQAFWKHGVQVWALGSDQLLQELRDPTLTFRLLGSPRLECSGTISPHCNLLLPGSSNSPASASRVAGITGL

SMILES | IC50 (HPK1) [nM] | IC50 ([1]; Homo sapiens) [nM] | IC50 [1] [nM]
CCN1C[C@@H]2C[C@H]1CN2c1nc(C)cc(Nc2cc3nc(-c4ccc(F)c(C(=O)NC5CCCC5)c4)sc3cn2)n1 [Example 513] | < 100 | < 100 | –
CCN1C[C@@H]2C[C@H]1CN2c1nc(C)cc(Nc2cc3nc(-c4ccnc(C(=O)NC5CCCC5)c4)sc3cn2)n1 [Example 514] | < 100 | 100 to 1000 | –
CCN1C[C@@H]2C[C@H]1CN2c1nc(C)cc(Nc2cc3nc(-c4cccc(C(=O)NC5CCCC5)c4)sc3cn2)n1 [Example 515] | < 100 | < 100 | –
CCN1C[C@@H]2C[C@H]1CN2c1nc(C)cc(Nc2cc3nc(-c4cccc(C(=O)N[C@H](C)c5ccccc5)c4)sc3cn2)n1 [Example 516] | < 100 | 100 to 1000 | –
CCN1C[C@@H]2C[C@H]1CN2c1nc(C)cc(Nc2cc3nc(-c4cccc(C(=O)N5CCC(C)CC5)c4)sc3cn2)n1 [Example 517] | < 100 | < 100 | –
CCc1cc(C(=O)N(C)C)cc(-c2nc3cc(Nc4cc(C)nc(N5C[C@@H]6C[C@H]5CN6CC)n4)ncc3s2)c1 [Example 518] | < 100 | < 100 | –
CCN1C[C@@H]2C[C@H]1CN2c1nc(C)cc(Nc2cc3nc(-c4cc(Cl)cc(C(=O)N(C)C)c4)sc3cn2)n1 [Example 519] | < 100 | 100 to 1000 | –
CCN1C[C@@H]2C[C@H]1CN2c1nc(C)cc(Nc2cc3nc(-c4cccc(C(=O)N5CCCC5(C)C)c4)sc3cn2)n1 [Example 520] | < 100 | < 100 | –
CCN1C[C@@H]2C[C@H]1CN2c1nc(C)cc(Nc2cc3nc(-c4cccc(C(=O)N5CCC(C)(C)C5)c4)sc3cn2)n1 [Example 521] | < 100 | 100 to 1000 | –
CCN1C[C@@H]2C[C@H]1CN2c1nc(C)cc(Nc2cc3nc(-c4cccc(C(=O)Nc5ccccc5)c4)sc3cn2)n1 [Example 522] | < 100 | 100 to 1000 | –
CCN1C[C@@H]2C[C@H]1CN2c1nc(C)cc(Nc2cc3nc(-c4cccc(C(=O)N(C)CC5CCOCC5)c4)sc3cn2)n1 [Example 523] | < 100 | 100 to 1000 | –
CCN1C[C@@H]2C[C@H]1CN2c1nc(C)cc(Nc2cc3nc(-c4cccc(C(=O)N[C@H](C)C5CC5)c4)sc3cn2)n1 [Example 524] | < 100 | < 100 | –
CCN1C[C@@H]2C[C@H]1CN2c1nc(C)cc(Nc2cc3nc(-c4cccc(C(=O)N[C@@H](C)C5CC5)c4)sc3cn2)n1 [Example 525] | < 100 | < 100 | –
CCN1C[C@@H]2C[C@H]1CN2c1nc(C)cc(Nc2cc3nc(-c4cccc(C(=O)N5CCC[C@@H]5C)c4)sc3cn2)n1 [Example 526] | < 100 | < 100 | –
CCN1C[C@@H]2C[C@H]1CN2c1nc(C)cc(Nc2cc3nc(-c4cccc(C(=O)N5CCOC[C@H]5C)c4)sc3cn2)n1 [Example 527] | < 100 | 100 to 1000 | –
CCN1C[C@@H]2C[C@H]1CN2c1nc(C)cc(Nc2cc3nc(-c4cccc(C(=O)N(C)C5CCOCC5)c4)sc3cn2)n1 [Example 528] | < 100 | 100 to 1000 | –
CCN1C[C@@H]2C[C@H]1CN2c1nc(C)cc(Nc2cc3nc(-c4cccc(C(=O)N5C[C@@H]6OCCO[C@@H]6C5)c4)sc3cn2)n1 [Example 529] | < 100 | < 100 | –
CCN1C[C@@H]2C[C@H]1CN2c1nc(C)cc(Nc2cc3nc(-c4cccc(C(=O)N5CCC6(CCOC6)C5)c4)sc3cn2)n1 (stereo partly shown) [Example 530] | < 100 | 100 to 1000 | –
CCN1C[C@@H]2C[C@H]1CN2c1nc(C)cc(Nc2cc3nc(-c4cccc(C(=O)N5CCCOCC5)c4)sc3cn2)n1 [Example 531] | < 100 | 100 to 1000 | –
CCN1C[C@@H]2C[C@H]1CN2c1nc(C)cc(Nc2cc3nc(-c4cccc(C(=O)NC5CCOCC5)c4)sc3cn2)n1 [Example 532] | < 100 | 100 to 1000 | –
CCN1C[C@@H]2C[C@H]1CN2c1nc(C)cc(Nc2cc3nc(-c4cccc(C(=O)N5CC[C@H](C)C5)c4)sc3cn2)n1 [Example 533] | < 100 | < 100 | –
CCN1C[C@@H]2C[C@H]1CN2c1nc(C)cc(Nc2cc3nc(-c4cccc(C(=O)N5CC[C@H](OC)C5)c4)sc3cn2)n1 [Example 534] | < 100 | 100 to 1000 | –
CCN1C[C@@H]2C[C@H]1CN2c1nc(C)cc(Nc2cc3nc(-c4cccc(C(=O)N5CCC[C@@H]5COC)c4)sc3cn2)n1 [Example 535] | < 100 | < 100 | –
CCN1C[C@@H]2C[C@H]1CN2c1nc(C)cc(Nc2cc3nc(-c4cc(C(=O)N(C)C)cc(C5CC5)c4)sc3cn2)n1 [Example 536] | < 100 | < 100 | –

SMILES | IC50 (HPK1) [nM] | IC50 ([1]; Homo sapiens) [nM] | IC50 [1] [nM]
Cc1cc(-c2nc3cc(Nc4cc(C)nc(N5C[C@@H]6C[C@H]5CN6CCO)n4)ncc3s2)cc(C2CC2)n1 [Example 537] | < 100 | 100 to 1000 | –
CCN1C[C@@H]2C[C@H]1CN2c1nc(C)cc(Nc2cc3nc(-c4cccc(C(=O)N5CCC(F)CC5)c4)sc3cn2)n1 [Example 538] | < 100 | < 100 | –
Cc1cc(Nc2cc3nc(-c4cccc(C(=O)N[C@@H]5CCCOC5)c4)sc3cn2)nc(N2C[C@@H]3C[C@H]2CN3CCO)n1 [Example 540] | < 100 | < 100 | –
Cc1cc(Nc2cc3nc(-c4cccc(C(=O)N[C@H]5CCCOC5)c4)sc3cn2)nc(N2C[C@@H]3C[C@H]2CN3CCO)n1 [Example 541] | < 100 | 100 to 1000 | –
Cc1cc(Nc2cc3nc(-c4cccc(C(=O)N(C)[C@H]5CCCOC5)c4)sc3cn2)nc(N2C[C@@H]3C[C@H]2CN3CCO)n1 [Example 543] | < 100 | – | < 100
Cc1cc(Nc2cc3nc(-c4cccc(C(=O)N(C)C5CCCC5)c4)sc3cn2)nc(N2C[C@@H]3C[C@H]2CN3CCO)n1 [Example 544] | < 100 | < 100 | –
Cc1cc(Nc2cc3nc(-c4cccc(C(=O)NC5CCCC5)c4)sc3cn2)nc(N2C[C@@H]3C[C@H]2CN3CCO)n1 [Example 545] | < 100 | < 100 | –
CCc1cc(C(=O)N(C)C)cc(-c2nc3cc(Nc4cc(C)nc(N5C[C@@H]6C[C@H]5CN6CCO)n4)ncc3s2)c1 [Example 546] | < 100 | < 100 | –
Cc1cc(Nc2cc3nc(-c4cccc(C(=O)N5CCOC[C@H]5C)c4)sc3cn2)nc(N2C[C@@H]3C[C@H]2CN3CCO)n1 [Example 547] | < 100 | 100 to 1000 | –
Cc1cc(Nc2cc3nc(-c4cccc(C(=O)N5CCC[C@@H]5C)c4)sc3cn2)nc(N2C[C@@H]3C[C@H]2CN3CCO)n1 [Example 548] | < 100 | < 100 | –
CNC(=O)c1cccc(-c2nc3cc(Nc4cc(C)nc(N5C[C@@H]6C[C@H]5CN6CCO)n4)ncc3s2)c1 [Example 549] | < 100 | 100 to 1000 | –
Cc1cc(Nc2cc3nc(-c4cccc(C(=O)N5CCC[C@H]5C)c4)sc3cn2)nc(N2C[C@@H]3C[C@H]2CN3CCO)n1 [Example 550] | < 100 | 100 to 1000 | –
Cc1cc(Nc2cc3nc(-c4cc(C(=O)N(C)C)cc(C(C)C)c4)sc3cn2)nc(N2C[C@@H]3C[C@H]2CN3CCO)n1 [Example 551] | < 100 | < 100 | –
Cc1cc(Nc2cc3nc(-c4cc(C(=O)N(C)C)cc(C5CC5)c4)sc3cn2)nc(N2C[C@@H]3C[C@H]2CN3CCO)n1 [Example 552] | < 100 | < 100 | –
Cc1cc(Nc2cc3nc(-c4cccc(C(N)=O)c4)sc3cn2)nc(N2C[C@@H]3C[C@H]2CN3CCO)n1 [Example 553] | < 100 | 1000 to 5000 | –
Cc1cc(Nc2cc3nc(-c4cc(C#N)cc(C(=O)N(C)C)c4)sc3cn2)nc(N2C[C@@H]3C[C@H]2CN3CCO)n1 [Example 554] | < 100 | 100 to 1000 | –
Cc1cc(Nc2cc3nc(-c4cccc(C(=O)N(C)[C@H]5CCOC5)c4)sc3cn2)nc(N2C[C@@H]3C[C@H]2CN3CCO)n1 [Example 555] | < 100 | < 100 | –
CCN1C[C@@H]2C[C@H]1CN2c1nc(C)cc(Nc2cc3nc(-c4cccc(C(=O)NC5CCOC5)c4)sc3cn2)n1 (stereo partly shown) [Example 556] | < 100 | < 100 | –
Cc1cc(Nc2cc3nc(-c4cccc(C(=O)N(C)CC5CC5)c4)sc3cn2)nc(N2C[C@@H]3C[C@H]2CN3CCO)n1 [Example 558] | < 100 | < 100 | –
Cc1cc(Nc2cc3nc(-c4cccc(C(=O)N(C)[C@@H](C)CO)c4)sc3cn2)nc(N2C[C@@H]3C[C@H]2CN3CC2CC2)n1 [Example 560] | < 100 | < 100 | –
Cc1cc(Nc2cc3nc(-c4cccc(C(=O)N(C)[C@@H](C)CO)c4)sc3cn2)nc(N2C[C@@H]3C[C@H]2CN3C)n1 [Example 561] | < 100 | 100 to 1000 | –
Cc1cc(C(=O)N(C)C)cc(-c2nc3cc(Nc4cc(C)nc(N5C[C@@H]6C[C@H]5CN6CCO)n4)ncc3s2)c1 [Example 562] | < 100 | < 100 | –
Cc1cc(Nc2cc3nc(-c4cccc(C(=O)N5C[C@H]6C[C@@H]5CO6)c4)sc3cn2)nc(N2C[C@@H]3C[C@H]2CN3CCO)n1 [Example 563] | < 100 | 100 to 1000 | –
